This assay has as its system CRC cells co-encapsulated with fibroblasts, endothelial cells, and PBMCs in MOS. The assay can be described thus: Live/dead staining (Calcein AM / ethidium homodimer) of EpCAM-stained MOS after drug treatment. The settings on record: higher dose (33.3 μM) versus 1.23 μM, treated for three days, FIG. 3A. The class given is cell-based. From the text: FIG. 3A includes representative images showing live MOS staining of CRC cells co-encapsulated with fibroblasts, endothelial cells, and PBMCs, stained with EpCAM and treated with vehicle or oxaliplatin for three days, followed by staining with Calcein AM (CAM) and ethidium homodimer (EtH). FIG. 3B is a graph plotting differential drug responses observed for the CRC only condition and for CRCs co-encapsulated with the non-cancer cells, measured by CTG assay.
Additional images of stained live MOS are shown in FIG. 3A, which includes representative images of live MOS containing CRC cells co-encapsulated with fibroblasts, endothelial cells, and PBMCs, where the MOS were stained with EpCAM and treated with vehicle or oxaliplatin (1.23 μM or 33.3 μM) for three days, followed by staining with Calcein AM (CAM) and ethidium homodimer (EtH). […] When MOS encapsulating only CRC cells or MOS co-encapsulating CRC cells, fibroblasts, endothelial cells, and PBMCs were treated with oxaliplatin, differential responses to the treatment were observed between the CRC-only MOS and the co-encapsulated MOS, as determined by CTG assay (FIG. 3B). However, the drug responses of the CRC-only MOS versus the CRC/non-cancer cell co-encapsulated MOS were much more similar based on live cell dye (CAM): dead cell dye (EtH) ratios from EpCAM positive (FIG. 3C).

These results are taken from patent US20260243775A1, “CELL LABELING AND ANNOTATION IN MICRO-ORGANOSPHERES” (Xilis, Inc., priority 2023, published 2026).

Turning to `O=C1[O][Pt]2([NH][C@@H]3CCCC[C@H]3[NH]2)[O]C1=O` [oxaliplatin], the “EtH (dead) and Calcein AM (live) staining, degree of killing” value is on record as “a greater degree of killing”.
